Source: patent US11780840B2 (Incyte Corporation, priority 2020, dated 2023)
pIC50: −log10 of the molar value.

Assays:
[1] = target: T1, catalytic domain (JH1, amino acids 826-1132) of human JAK2 (Homo sapiens, UniProt O60674); assay: JAK2 LanthaScreen JH1 Binding Assay; details: JAK2 JH1 (1.5 nM), 50 nM fluorescent JAK2-JH1 tracer, 2 hours at 25° C.; read-out: JH1 BIND
T1 construct: catalytic domain (JH1, amino acids 826-1132) of human JAK2; FLAG (N); purchased Carna Biosciences 08-445-20N; host or cells: baculovirus expression system
T1 sequence (O60674 826-1132): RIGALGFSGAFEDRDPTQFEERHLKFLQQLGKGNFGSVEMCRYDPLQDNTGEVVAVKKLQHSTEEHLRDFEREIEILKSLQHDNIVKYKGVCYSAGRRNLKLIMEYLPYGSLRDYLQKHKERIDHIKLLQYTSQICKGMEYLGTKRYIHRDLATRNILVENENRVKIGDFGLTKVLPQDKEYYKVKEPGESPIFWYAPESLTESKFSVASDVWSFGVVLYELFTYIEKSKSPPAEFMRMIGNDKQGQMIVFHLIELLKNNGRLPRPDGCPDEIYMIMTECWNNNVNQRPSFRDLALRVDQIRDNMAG
Method: Example A. JAK2 LanthaScreen JH1 Binding Assay
JAK2 JH1 binding assay utilizes catalytic domain (JH1, amino acids 826-1132) of human JAK2 expressed as N-terminal FLAG-tagged, biotinylated protein in a baculovirus expression system (Carna Biosciences, Product #08-445-20N). The assay was conducted in black 384-well polystyrene plates in a final reaction volume of 20 μL. JAK2 JH1 (1.5 nM) was incubated with compounds (100 nL serially diluted in DMSO) in the presence of 50 nM fluorescent JAK2-JH1 tracer and 0.5 nM Streptavidin-Tb cryptate (Cisbio Part #610SATLB) in assay buffer (50 mM Tris, pH=7.5, 10 mM MgCl2, 0.01% Brij-35, 0.1% BSA, 1 mM EGTA, 5% Glycerol and 5 mM DTT). Non-specific binding was accessed in the presence of 2 mM ATP. After incubation for 2 hours at 25° C., LanthaScreen signals were read on a PHERAstar FS plate reader (BMG LABTECH). Data was analyzed with IDBS XLfit and GraphPad Prism 5.0 software using a four parameter dose response curve to determine IC50 for each compound.

[2] = target: T2, pseudo-kinase domain (JH2, amino-acids 536-812 with 3 surface mutations W659A, W777A, F794H) of human Wild Type JAK2 (Homo sapiens, UniProt O60674, F794H/W659A/W777A); assay: JAK2 LanthaScreen JH2-WT Binding Assay; details: JAK2 JH2-WT (0.145 nM), 50 nM Fluorescent JAK2-JH2 Tracer, 1 hour at 25° C.; read-out: JH2 BIND WT
T2 construct: pseudo-kinase domain (JH2, amino-acids 536-812 with 3 surface mutations W659A, W777A, F794H); His (C); Avi (biotinylated) (C); purchased BPS Bioscience 79463; host or cells: baculovirus expression system
T2 sequence (O60674 536-812 W659A/W777A/F794H): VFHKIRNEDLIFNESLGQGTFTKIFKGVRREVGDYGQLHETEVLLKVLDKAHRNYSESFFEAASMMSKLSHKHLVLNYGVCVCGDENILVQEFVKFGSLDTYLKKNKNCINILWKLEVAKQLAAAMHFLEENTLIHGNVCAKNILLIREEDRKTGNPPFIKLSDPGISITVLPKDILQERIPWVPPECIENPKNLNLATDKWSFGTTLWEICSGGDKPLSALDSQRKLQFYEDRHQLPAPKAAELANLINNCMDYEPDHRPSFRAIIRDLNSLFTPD
Method: Example B. JAK2 LanthaScreen JH2-WT Binding Assay
(§1) JAK2 JH2-WT binding assay utilizes pseudo-kinase domain (JH2, amino-acids 536-812 with 3 surface mutations W659A, W777A, F794H) of human Wild Type JAK2 expressed as C-terminal His-Avi-tagged, biotinylated protein in a baculovirus expression system (BPS Bioscience, Catalog #79463). The assay was conducted in black 384-well polystyrene plates in a final reaction volume of 20 μL. JAK2 JH2-WT (0.145 nM) was incubated with compounds (100 nL serially diluted in DMSO) in the presence of 50 nM Fluorescent JAK2-JH2 Tracer (MedChem Express Catalog #HY-102055) and 0.25 nM Streptavidin-Tb cryptate (Cisbio Part #610SATLB) in assay buffer (50 mM Tris, pH=7.5, 10 mM MgCl2, 0.01% Brij-35, 0.1% BSA, 1 mM EGTA, 5% Glycerol and 5 mM DTT). Non-specific binding was accessed in the presence of 2 mM ATP. After incubation for 1 hour at 25° C., LanthaScreen signals were read on a PHERAstar FS plate reader (BMG LABTECH). Data was analyzed with IDBS XLfit and GraphPad Prism 5.0 software using a four parameter dose response curve to determine IC50 for each compound.

[3] = target: T3, pseudo-kinase domain (JH2, amino-acids 536-812 with 3 surface mutations W659A, W777A, F794H) of human V617F mutant JAK2 (Homo sapiens, UniProt O60674, F794H/V617F/W659A/W777A); assay: JAK2 LanthaScreen JH2-V617F Binding Assay; details: JAK2 JH2-V617F (0.26 nM), 50 nM Fluorescent JAK2-JH2 Tracer, 1 hour at 25° C.; read-out: JH2 BIND V617F
T3 construct: pseudo-kinase domain (JH2, amino-acids 536-812 with 3 surface mutations W659A, W777A, F794H); His (C); Avi (biotinylated) (C); purchased BPS Bioscience 79498; host or cells: baculovirus expression system
T3 sequence (O60674 536-812 V617F/W659A/W777A/F794H): as the sequence (O60674 536-812 W659A/W777A/F794H) above, with V82F counted along it
Method: Example C. JAK2 LanthaScreen JH2-V617F Binding Assay
as §1, with “JH2-V617F” for “JH2-WT”, “V617F mutant” for “Wild Type”, “#79498).” for “#79463).”, “JH2-V617F (0.26” for “JH2-WT (0.145”

| SMILES | pIC50 [1] | pIC50 [2] | pIC50 [3] |
| --- | --- | --- | --- |
| CCN1CCN(c2ccc(-c3cc4c(ncc5c4n(CC(=O)N4CCCCC4)c(=O)n5C)[nH]3)cc2)CC1 [Example 17, 7-(4-(4-Ethylpiperazin-1-yl)phenyl)-3-methyl-1-(2-oxo-2-(piperidin-1-yl)ethyl)-3,6-dihydroimidazo[4,5-d]pyrrolo[2,3-b]pyridin-2(1H)-one] | < 6.00 | < 6.00 | < 6.00 |
| CC(C)n1c(=O)n(C)c2cnc3[nH]c(-c4ccc(CN5CCC(S(C)(=O)=O)CC5)cc4)c(-c4ccccc4)c3c21 [Example 18, 1-Isopropyl-3-methyl-7-(4-((4-(methylsulfonyl)piperidin-1-yl)methyl)phenyl)-8-phenyl-3,6-dihydroimidazo[4,5-d]pyrrolo[2,3-b]pyridin-2(1H)-one] | 6.30 to 7.00 | ≥ 8.00 | ≥ 8.00 |
| COc1ccc(-c2c(-c3ccc(CN4CCC(S(C)(=O)=O)CC4)cc3)[nH]c3ncc4c(c23)n(C2CCCCC2)c(=O)n4C)cc1 [Example 19, 1-Cyclohexyl-8-(4-methoxyphenyl)-3-methyl-7-(4-((4-(methylsulfonyl)piperidin-1-yl)methyl)phenyl)-3,6-dihydroimidazo [4,5-d]pyrrolo[2,3-b]pyridin-2(1H)-one] | 7.00 to 8.00 | ≥ 8.00 | ≥ 8.00 |
| COc1ccc(-c2c(-c3ccc(CN4CCC(S(C)(=O)=O)CC4)cc3)[nH]c3ncc4c(c23)n(CC(C)C)c(=O)n4C)cc1 [Example 20, 1-Isobutyl-8-(4-methoxyphenyl)-3-methyl-7-(4-((4-(methylsulfonyl)piperidin-1-yl)methyl)phenyl)-3,6-dihydroimidazo [4,5-d]pyrrolo[2,3-b]pyridin-2(1H)-one] | 6.30 to 7.00 | ≥ 8.00 | ≥ 8.00 |
| COc1ccc(-c2c(-c3ccc(CN4CCC(S(C)(=O)=O)CC4)cc3)[nH]c3ncc4c(c23)n(C2CCC2)c(=O)n4C)cc1 [Example 21, 1-Cyclobutyl-8-(4-methoxyphenyl)-3-methyl-7-(4-((4-(methylsulfonyl)piperidin-1-yl)methyl)phenyl)-3,6-dihydroimidazo [4,5-d]pyrrolo [2,3-b]pyridin-2(1H)-one] | 6.30 to 7.00 | ≥ 8.00 | ≥ 8.00 |
| COc1ccc(-c2c(-c3ccc(CN4CCC(S(C)(=O)=O)CC4)cc3)[nH]c3ncc4c(c23)n(-c2ccccc2)c(=O)n4C)cc1 [Example 22, 8-(4-Methoxyphenyl)-3-methyl-7-(4-((4-(methylsulfonyl)piperidin-1-yl)methyl)phenyl)-1-phenyl-3,6-dihydroimidazo[4,5-d]pyrrolo[2,3-b]pyridin-2(1H)-one] | 6.30 to 7.00 | 7.00 to 8.00 | 7.00 to 8.00 |
| COc1ccc(-c2c(-c3ccc(CN4CCC(S(C)(=O)=O)CC4)cc3)[nH]c3ncc4c([nH]c(=O)n4C)c23)cc1 [Example 23, 8-(4-Methoxyphenyl)-3-methyl-7-(4-((4-(methylsulfonyl)piperidin-1-yl)methyl)phenyl)-3,6-dihydroimidazo[4,5-d]pyrrolo[2,3-b]pyridin-2(1H)-one] | 6.30 to 7.00 | 7.00 to 8.00 | 6.30 to 7.00 |
| COC1CC=C(c2c(-c3ccc(CN4CCC(S(C)(=O)=O)CC4)cc3)[nH]c3ncc4c(c23)n(C(C)(C)C)c(=O)n4C)CC1 (stereo not drawn) [Example 24, 1-(tert-Butyl)-8-(4-methoxycyclohex-1-en-1-yl)-3-methyl-7-(4-((4-(methylsulfonyl)piperidin-1-yl)methyl)phenyl)-3,6-dihydroimidazo[4,5-d]pyrrolo[2,3-b] pyridin-2(1H)-one] | 6.00 to 6.30 | ≥ 8.00 | ≥ 8.00 |
| CC(C)n1c(=O)n(C)c2cnc3[nH]c(-c4ccc(CN5CCC(S(C)(=O)=O)CC5)cc4)c(-c4ccc(C#N)cc4)c3c21 [Example 25, 4-(1-Isopropyl-3-methyl-7-(4-((4-(methylsulfonyl)piperidin-1-yl)methyl)phenyl)-2-oxo-1,2,3,6-tetrahydroimidazo [4,5-d]pyrrolo[2,3-b]pyridin-8-yl)benzonitrile] | 6.00 to 6.30 | ≥ 8.00 | ≥ 8.00 |
| CC(C)n1c(=O)n(C)c2cnc3[nH]c(-c4ccc(CN5CCC(S(C)(=O)=O)CC5)cc4)c(-c4ccc(C5(C#N)CC5)cc4)c3c21 [Example 26, 1-(4-(1-Isopropyl-3-methyl-7-(4-((4-(methylsulfonyl)piperidin-1-yl)methyl)phenyl)-2-oxo-1,2,3,6-tetrahydroimidazo [4,5-d]pyrrolo[2,3-b]pyridin-8-yl)phenyl) cyclopropane-1-carbonitrile] | < 6.00 | ≥ 8.00 | ≥ 8.00 |
| CC(C)n1c(=O)n(C)c2cnc3[nH]c(-c4ccc(CN5CCC(S(C)(=O)=O)CC5)cc4)c(-c4cnn(Cc5ccc(C(=O)O)cc5)c4)c3c21 [Example 27, 4-((4-(1-Isopropyl-3-methyl-7-(4-((4-(methylsulfonyl)piperidin-1-yl)methyl)phenyl)-2-oxo-1,2,3,6-tetrahydroimidazo [4,5-d]pyrrolo[2,3-b]pyridin-8-yl)-1H-pyrazol-1-yl)methyl)benzoic acid] | 6.30 to 7.00 | ≥ 8.00 | ≥ 8.00 |
| Cn1c(=O)n(C2CCCC2)c2c3c(-c4ccccc4)c(-c4ccc(CN5CCC(S(C)(=O)=O)CC5)cc4)[nH]c3ncc21 [Example 28, 1-Cyclopentyl-3-methyl-7-(4-((4-(methylsulfonyl)piperidin-1-yl)methyl)phenyl)-8-phenyl-3,6-dihydroimidazo[4,5-d]pyrrolo[2,3-b]pyridin-2(1H)-one] | 6.30 to 7.00 | ≥ 8.00 | ≥ 8.00 |
| Cn1c(=O)n(C2CCCC2)c2c3c(-c4ccccc4)c(-c4cnn(CS(C)(=O)=O)c4)[nH]c3ncc21 [Example 29, 1-Cyclopentyl-3-methyl-7-(1-((methylsulfonyl)methyl)-1H-pyrazol-4-yl)-8-phenyl-3,6-dihydroimidazo[4,5-d]pyrrolo[2,3-b]pyridin-2(1H)-one] | 6.30 to 7.00 | ≥ 8.00 | ≥ 8.00 |
| Cn1c(=O)n(C2CCCC2)c2c3c(-c4ccc(C5(C#N)CC5)cc4)c(-c4ccc(CN5CCC(S(C)(=O)=O)CC5)cc4)[nH]c3ncc21 [Example 30, 1-(4-(1-Cyclopentyl-3-methyl-7-(4-((4-(methylsulfonyl)piperidin-1-yl)methyl)phenyl)-2-oxo-1,2,3,6-tetrahydroimidazo [4,5-d]pyrrolo[2,3-b]pyridin-8-yl)phenyl)cyclo-propane-1-carbonitrile] | 6.30 to 7.00 | ≥ 8.00 | ≥ 8.00 |
